# Assay results as given in publication PMC11279468, “Exploring a New Generation of Pyrimidine and Pyridine Derivatives as Anti-Influenza Agents Targeting the Polymerase PA–PB1 Subunits Interaction” (Pharmaceutics, 2024).
# Read-outs that look alike come from different tables or passages of the source.
# Tests used:
# [1] = system: Influenza virus strain A/PR/8/34 (H1N1)
# MDCK cells = experiment: Cytotoxicity assay (MTT) in MDCK cells; details: read-out: CC50 (MDCK Cells); MTT assay, MDCK cells, 48 h; 50% decrease in cell viability
# Description: (§1) The cytotoxicity of compounds was tested in MDCK cells using the 3-(4,5-dimethylthiazol-2-yl)-2,5-diphenyl tetrazolium bromide (MTT) method, as previously reported [32]. Briefly, MDCK cells (seeded at a density of 2 × 10^4 per well) were grown in 96-well plates for 24 h and then treated with serial dilutions of test compounds, or DMSO as a control, in DMEM supplemented with 10% FBS. After incubation at 37 °C for 48 h, 5 mg/mL of MTT (Sigma, Tokyo, Japan) in PBS was added into each well and incubated at 37 °C for a further 4 h. Successively, a solubilization solution was added to lyse the cells and incubated overnight at 37 °C. Finally, optical density was read at the wavelength of 570 nm on a microtiter plate reader (MultiSkan FC, ThermoFisher Scientific).
# [2] = Cytotoxicity assay (MTT) in MDCK cells
# Description: as §1
SMILES,EC50 ([1]; read-out: EC50 (PRA)),CC50 (MDCK cells),"EC50 ([1]; Influenza virus strain A/PR/8/34, 24 h)",CC50 [2]
"CCC(CC)O[C@@H]1C=C(C(=O)O)C[C@H](N)[C@H]1NC(C)=O [OSC, oseltamivir carboxylate]",0.04 ± 0.01 µM,> 250 µM,,
CSCC[C@H](N)C(=O)N[C@@H](CC(=O)O)C(=O)N[C@H](C(=O)N[C@@H](CC(N)=O)C(=O)N1CCC[C@H]1C(=O)N[C@H](C(=O)N[C@@H](CC(C)C)C(=O)N[C@@H](CC(C)C)C(=O)N[C@@H](Cc1ccccc1)C(=O)N[C@@H](CC(C)C)C(=O)N[C@@H](CCCCN)C(=O)N[C@H](C(=O)N1CCC[C@H]1C(=O)N[C@@H](C)C(=O)N[C@@H](CCC(N)=O)C(=O)N[C@@H](Cc1ccc(O)cc1)C(=O)NCC(=O)N[C@@H](CCCNC(=N)N)C(=O)N[C@@H](CCCCN)C(=O)N[C@@H](CCCCN)C(=O)N[C@@H](CCCNC(=N)N)C(=O)N[C@@H](CCCNC(=N)N)C(=O)N[C@@H](CCC(N)=O)C(=O)N[C@@H](CCCNC(=N)N)C(=O)N[C@@H](CCCNC(=N)N)C(=O)N[C@@H](CCCNC(=N)N)C(=O)N1CCC[C@H]1C(=O)N1CCC[C@H]1C(=O)O)C(C)C)[C@@H](C)O)C(C)C [PB1(1–15)-Tat peptide],,,49.7 ± 5.1 µM,> 250 µM
